# According to US8492398B2, “Spiroazaindoles” (Merck Sharp & Dohme Corp., priority 2008, dated 2013):
# Target: PHD2 (Homo sapiens, UniProt Q9GZT9)
# Test: Assay for HIF-PHD2 catalytic activity (time-resolved fluorescence, VHL complex detection)
# Assay type: biochemical
# Conditions: FLAG-tagged full length PHD2; 0.2 μM 2-oxoglutarate, 0.5 μM HIF-1α peptide; read-out: PHD2 Activity (PHD2 binding activity expressed as IC50)
# Method: Assay for HIF-PHD2 Catalytic Activity
# After a 30 min preincubation at room temperature, the enzymatic reactions were initiated by the addition of 4 μL of substrates (final concentrations of 0.2 μM 2-oxoglutarate and 0.5 μM HIF-1α peptide biotinyl-DLDLEMLAPYIPMDDDFQL). After 2 hr at room temperature, the reactions were terminated and signals were developed by the addition of a 25 μL quench/detection mix to a final concentration of 1 mM ortho-phenanthroline, 0.1 mM EDTA, 0.5 nM anti-(His)6 LANCE reagent (Perkin-Elmer Life Sciences), 100 nM AF647-labeled streptavidin (Invitrogen), and 2 μg/ml (His)6-VHL complex (S. Tan (2001) Protein Expr. Purif. 21, 224-234). The ratio of time resolved fluorescence signals at 665 and 620 nm was determined, and percent inhibition was calculated relative to an uninhibited control sample run in parallel.
# Sequence of PHD2 (Q9GZT9 whole entry): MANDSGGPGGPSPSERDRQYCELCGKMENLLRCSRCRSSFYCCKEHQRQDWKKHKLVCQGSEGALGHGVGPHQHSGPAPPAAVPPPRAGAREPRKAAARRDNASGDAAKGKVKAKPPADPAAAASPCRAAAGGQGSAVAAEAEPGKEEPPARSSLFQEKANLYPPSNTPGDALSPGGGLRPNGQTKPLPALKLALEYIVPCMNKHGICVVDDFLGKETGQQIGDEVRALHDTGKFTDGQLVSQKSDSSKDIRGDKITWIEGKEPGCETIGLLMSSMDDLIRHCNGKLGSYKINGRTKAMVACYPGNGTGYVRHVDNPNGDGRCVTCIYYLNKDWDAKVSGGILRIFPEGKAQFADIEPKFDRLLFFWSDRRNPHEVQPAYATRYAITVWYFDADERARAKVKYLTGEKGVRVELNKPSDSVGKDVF
row,Compound,IC50
1,"Cc1cccnc1CN1CCC2(CC1)C(=O)N(c1ccc(-c3ccccc3)cc1)c1ncc(C(=O)O)cc12 [Example 5, 1′-biphenyl-4-yl-1-[(3-methylpyridin-2-yl)methyl]-2′-oxo-1′,2′-dihydrospiro[piperidine-4,3′-pyrrolo[2,3-b]pyridine]-5′-carboxylic acid]",≤ 0.005 µM
2,"O=C(O)CN1CCC2(CC1)C(=O)N(c1ccc(-c3ccccc3)cc1)c1ncc(Br)cc12 [Example 7, (1′-biphenyl-4-yl-5′-bromo-2′-oxo-1′,2′-dihydro-1H-spiro[piperidine-4,3′-pyrrolo[2,3-b]pyridin]-1-yl)acetic acid]",0.01 to 0.05 µM
3,"O=C(O)CN1CCC2(CC1)C(=O)N(c1ccc(-c3ccccc3)cc1)c1ncccc12 [Example 9, (1′-biphenyl-4-yl-2′-oxo-1′,2′-dihydro-1H-spiro[piperidine-4,3′-pyrrolo[2,3-b]pyridin]-1-yl)acetic acid]",0.01 to 0.05 µM

# Second part, the molecule after the results:
row,IC50,Compound
1,≤ 0.005 µM,"Cc1cccnc1CN1CCC2(CC1)C(=O)N(c1ccc(-c3ccccc3)cc1)c1nc(C#N)ccc12 [Example 3, 1′-biphenyl-4-yl-1-[(3-methylpyridin-2-yl)methyl]-2′-oxo-1′,2′-dihydrospiro[piperidine-4,3′-pyrrolo[2,3-b]pyridine]-6′-carbonitrile]"
2,0.005 to 0.01 µM,"Cc1cccnc1CN1CCC2(CC1)C(=O)N(c1ccc(-c3ccccc3)cc1)c1ncc(C#N)cc12 [Example 4, 1′-biphenyl-4-yl-1-[(3-methylpyridin-2-yl)methyl]-2′-oxo-1′,2′-dihydrospiro[piperidine-4,3′-pyrrolo[2,3-b]pyridine]-5′-carbonitrile]"
3,≤ 0.005 µM,"Cc1cccnc1CN1CCC2(CC1)C(=O)N(c1ccc(-c3ccccc3)cc1)c1nc(C(=O)O)ccc12 [Example 6, 1′-biphenyl-4-yl-1-[(3-methylpyridin-2-yl)methyl]-2′-oxo-1′,2′-dihydrospiro[piperidine-4,3′-pyrrolo[2,3-b]pyridine]-6′-carboxylic acid]"
4,0.01 to 0.05 µM,"N#Cc1cnc2c(c1)C1(CCN(CC(=O)O)CC1)C(=O)N2c1ccc(-c2ccccc2)cc1 [Example 8, (1′-biphenyl-4-yl-5′-cyano-2′-oxo-1′,2′-dihydro-1H-spiro[piperidine-4,3′-pyrrolo[2,3-b]pyridin]-1-yl)acetic acid]"
5,0.005 to 0.01 µM,"O=C(O)CN1CCC2(CC1)C(=O)N(c1ccc(-c3ccccc3)cc1)c1ncc(C(=O)O)cc12 [Example 10, 1′-biphenyl-4-yl-1-(carboxymethyl)-2′-oxo-1′,2′-dihydrospiro[piperidine-4,3′-pyrrolo[2,3-b]pyridine]-5′-carboxylic acid]"
